Biological target: T1, Dopamine beta hydroxylase (Homo sapiens, UniProt P09172)
T1 construct: 125 μl of plasma; tissue Instituto Português do Sangue Transplantação; host or cells: human plasma from healthy donors
T1 sequence (P09172 40-617 limits assumed): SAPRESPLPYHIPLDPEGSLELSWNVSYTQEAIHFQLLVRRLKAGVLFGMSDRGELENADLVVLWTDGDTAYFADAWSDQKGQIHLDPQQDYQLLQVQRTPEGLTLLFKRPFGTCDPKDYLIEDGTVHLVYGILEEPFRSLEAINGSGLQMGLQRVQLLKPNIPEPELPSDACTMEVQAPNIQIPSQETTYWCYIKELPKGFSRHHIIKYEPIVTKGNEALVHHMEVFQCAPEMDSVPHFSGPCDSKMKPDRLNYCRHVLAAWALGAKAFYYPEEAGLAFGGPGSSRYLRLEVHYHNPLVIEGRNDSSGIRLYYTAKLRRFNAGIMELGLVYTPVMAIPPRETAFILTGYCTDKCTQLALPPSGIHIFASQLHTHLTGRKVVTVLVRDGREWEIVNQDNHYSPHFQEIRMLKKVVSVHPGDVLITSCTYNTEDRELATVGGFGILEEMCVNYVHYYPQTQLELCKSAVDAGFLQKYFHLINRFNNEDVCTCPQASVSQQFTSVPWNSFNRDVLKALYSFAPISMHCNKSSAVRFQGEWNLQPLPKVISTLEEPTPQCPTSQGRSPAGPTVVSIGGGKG
Assay: Dopamine beta hydroxylase activity in human plasma
Format: biochemical
Conditions: for Plasma (0.01 μM), activity in % of control: inhibitor 0.01 μM; for Plasma (0.1 μM), activity in % of control: inhibitor 0.1 μM
Outline: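 Octopamine production from tyramine over 45 min at 37° C, measured photometrically at 330 nm after SCX extraction and periodate oxidation against an octopamine standard curve, indicates plasma DβH activity. Compounds tested at final 10, 100 and 1000 nM in human plasma, pH 5.0 cofactor buffer, 10 min preincubation; results as % of control.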

Plasma (0.01 μM), activity in % of control	Plasma (0.1 μM), activity in % of control	SMILES
61.7 % of control	15.7 % of control	Cn1c(CC(=O)N[C@@H]2CCOC2)c2n(c1=S)C[C@@]1(c3cc(Br)ccc3F)C[C@@H]21 [Example 279, 2-((5aS,6aR)-5a-(5-bromo-2-fluorophenyl)-2-methyl-3-thioxo-2,3,5,5a,6,6a-hexahydrocyclopropa[3,4]pyrrolo[1,2-c]imidazol-1-yl)-N—((R)-tetrahydrofuran-3-yl)acetamide]
92.8 % of control	51.4 % of control	Cn1c(CC(N)=O)c2n(c1=S)C[C@@]1(c3cc(Br)ccc3F)C[C@@H]21 [Example 280, 2-((5aS,6aR)-5a-(5-bromo-2-fluorophenyl)-2-methyl-3-thioxo-2,3,5,5a,6,6a-hexahydrocyclopropa[3,4]pyrrolo[1,2-c]imidazol-1-yl)acetamide]
107.9 % of control	29.8 % of control	Cn1c(CC(=O)N[C@@H]2CCOC2)c2n(c1=S)C[C@@]1(c3cc(Cl)ccc3F)C[C@@H]21 [Example 281, 2-((5aS,6aR)-5a-(5-chloro-2-fluorophenyl)-2-methyl-3-thioxo-2,3,5,5a,6,6a-hexahydrocyclopropa[3,4]pyrrolo[1,2-c]imidazol-1-yl)-N—((R)-tetrahydrofuran-3-yl)acetamide]
99.6 % of control	75.4 % of control	Cn1c(CC(N)=O)c2n(c1=S)C[C@@]1(c3cc(Cl)ccc3F)C[C@@H]21 [Example 282, 2-((5aS,6aR)-5a-(5-chloro-2-fluorophenyl)-2-methyl-3-thioxo-2,3,5,5a,6,6a-hexahydrocyclopropa[3,4]pyrrolo[1,2-c]imidazol-1-yl)acetamide]
96.0 % of control	72.9 % of control	COC[C@@H]1CCCN1C(=O)Cc1c2n(c(=S)n1C)C[C@@H](c1c(F)c(F)cc(F)c1F)C2 [Example 283, 1-((S)-2-(methoxymethyl)pyrrolidin-1-yl)-2-((R)-2-methyl-6-(2,3,5,6-tetrafluorophenyl)-3-thioxo-2,5,6,7-tetrahydro-3H-pyrrolo[1,2-c]imidazol-1-yl)ethan-1-one]
84.8 % of control	41.9 % of control	CC(C)NC(=O)Cc1c2n(c(=S)n1C)C[C@@]1(c3cc(Br)ccc3F)C[C@@H]21 [Example 284, 2-((5aS,6aR)-5a-(5-bromo-2-fluorophenyl)-2-methyl-3-thioxo-2,3,5,5a,6,6a-hexahydrocyclopropa[3,4]pyrrolo[1,2-c]imidazol-1-yl)-N-isopropylacetamide]
55.8 % of control	22.2 % of control	Cn1c(CC(=O)Nc2nncs2)c2n(c1=S)C[C@H](c1c(F)ccc(Cl)c1F)C2 [Example 285, (S)-2-(6-(3-chloro-2,6-difluorophenyl)-2-methyl-3-thioxo-2,5,6,7-tetrahydro-3H-pyrrolo[1,2-c]imidazol-1-yl)-N-(1,3,4-thiadiazol-2-yl)acetamide]
73.8 % of control	3.4 % of control	Cn1c(CC(=O)Nc2ncco2)c2n(c1=S)C[C@@H](c1c(F)ccc(F)c1F)C2 [Example 286, (R)-2-(2-methyl-3-thioxo-6-(2,3,6-trifluorophenyl)-2,5,6,7-tetrahydro-3H-pyrrolo[1,2-c]imidazol-1-yl)-N-(oxazol-2-yl)acetamide]
66.8 % of control	15.5 % of control	Cl.Cn1c(CC(=O)Nc2ccncc2)c2n(c1=S)C[C@H](c1c(F)ccc(Cl)c1F)C2 [Example 287, (S)-2-(6-(3-chloro-2,6-difluorophenyl)-2-methyl-3-thioxo-2,5,6,7-tetrahydro-3H-pyrrolo[1,2-c]imidazol-1-yl)-N-(pyridin-4-yl)acetamide Hydrochloride]
82.0 % of control	81.1 % of control	Cn1c(CCC(=O)N[C@@H]2CCCOC2)c2n(c1=S)C[C@@H](c1c(F)ccc(F)c1F)C2 [Example 288, 3-((R)-2-methyl-3-thioxo-6-(2,3,6-trifluorophenyl)-2,5,6,7-tetrahydro-3H-pyrrolo[1,2-c]imidazol-1-yl)-N—((R)-tetrahydro-2H-pyran-3-yl)propanamide]
87.1 % of control	58.3 % of control	Cn1c(CC(=O)N[C@H]2CCOC2)c2n(c1=S)C[C@@H](c1c(F)ccc(F)c1F)C2 [Example 289, 2-((R)-2-methyl-3-thioxo-6-(2,3,6-trifluorophenyl)-2,5,6,7-tetrahydro-3H-pyrrolo[1,2-c]imidazol-1-yl)-N—((S)-tetrahydrofuran-3-yl)acetamide]
37.6 % of control	3.8 % of control	Cn1c(CC(=O)NCc2cccnc2)c2n(c1=S)C[C@H](c1c(F)ccc(Cl)c1F)C2 [Example 290, (S)-2-(6-(3-chloro-2,6-difluorophenyl)-2-methyl-3-thioxo-2,5,6,7-tetrahydro-3H-pyrrolo[1,2-c]imidazol-1-yl)-N-(pyridin-3-ylmethyl)acetamide]
30.2 % of control	1.7 % of control	Cn1c(CC(=O)NCc2ccc3c(c2)OCO3)c2n(c1=S)C[C@H](c1c(F)ccc(Cl)c1F)C2 [Example 291, (S)—N-(benzo[d][1,3]dioxol-5-ylmethyl)-2-(6-(3-chloro-2,6-difluorophenyl)-2-methyl-3-thioxo-2,5,6,7-tetrahydro-3H-pyrrolo[1,2-c]imidazol-1-yl)acetamide]
101.9 % of control	68.3 % of control	Cn1c(CC(=O)N2CC[C@@H](F)C2)c2n(c1=S)C[C@@H](c1c(F)ccc(F)c1F)C2 [Example 292, 1-((R)-3-fluoropyrrolidin-1-yl)-2-((R)-2-methyl-3-thioxo-6-(2,3,6-trifluorophenyl)-2,5,6,7-tetrahydro-3H-pyrrolo[1,2-c]imidazol-1-yl)ethan-1-one]
104.8 % of control	86.0 % of control	CN(CCO)C(=O)Cc1c2n(c(=S)n1C)C[C@@H](c1c(F)ccc(F)c1F)C2 [Example 293, (R)—N-(2-hydroxyethyl)-N-methyl-2-(2-methyl-3-thioxo-6-(2,3,6-trifluorophenyl)-2,5,6,7-tetrahydro-3H-pyrrolo[1,2-c]imidazol-1-yl)acetamide]
39.7 % of control	1.7 % of control	Cn1c(CC(=O)NC2CCCCC2)c2n(c1=S)C[C@@]1(c3cc(Br)ccc3F)C[C@@H]21 [Example 294, 2-((5aS,6aR)-5a-(5-bromo-2-fluorophenyl)-2-methyl-3-thioxo-2,3,5,5a,6,6a-hexahydrocyclopropa[3,4]pyrrolo[1,2-c]imidazol-1-yl)-N-cyclohexylacetamide]
95.6 % of control	71.5 % of control	Cn1c(CC(=O)N[C@H]2CCOC2)c2n(c1=S)C[C@@H](c1c(F)c(F)cc(F)c1F)C2 [Example 295, 2-((R)-2-methyl-3-thioxo-6-(2,3,5,6-tetrafluorophenyl)-2,5,6,7-tetrahydro-3H-pyrrolo[1,2-c]imidazol-1-yl)-N—((S)-tetrahydrofuran-3-yl)acetamide]
89.2 % of control	74.5 % of control	Cn1c(CC(=O)N2CCC[C@H]2CF)c2n(c1=S)C[C@@H](c1c(F)ccc(F)c1F)C2 [Example 296, 1-((S)-2-(fluoromethyl)pyrrolidin-1-yl)-2-((R)-2-methyl-3-thioxo-6-(2,3,6-trifluorophenyl)-2,5,6,7-tetrahydro-3H-pyrrolo[1,2-c]imidazol-1-yl)ethan-1-one]
78.7 % of control	35.4 % of control	Cn1c(CC(=O)NC2CCOCC2)c2n(c1=S)C[C@@H](c1c(F)c(F)cc(F)c1F)C2 [Example 297, (R)-2-(2-methyl-6-(2,3,5,6-tetrafluorophenyl)-3-thioxo-2,5,6,7-tetrahydro-3H-pyrrolo[1,2-c]imidazol-1-yl)-N-(tetrahydro-2H-pyran-4-yl)acetamide]
83.5 % of control	28.2 % of control	Cn1c(CC(=O)NCC(F)(F)F)c2n(c1=S)C[C@@]1(c3cc(Br)ccc3F)C[C@@H]21 [Example 298, 2-((5aS,6aR)-5a-(5-bromo-2-fluorophenyl)-2-methyl-3-thioxo-2,3,5,5a,6,6a-hexahydrocyclopropa[3,4]pyrrolo[1,2-c]imidazol-1-yl)-N-(2,2,2-trifluoroethyl)acetamide]

From US11434242B2, “Dopamine-b-hydroxylase inhibitors” (BIAL-PORTELA & Cª, S.A., priority 2017, dated 2022)
